This assay relates to previously untreated advanced renal cell carcinoma. The assay is described as follows: IMmotion151 (NCT02420821) Phase 3 randomized trial, atezolizumab plus bevacizumab versus sunitinib, clinical outcomes by biomarker subgroup. It counts as in vivo, human. The source says:
IMmotion151 (NCT02420821) was a multicenter, open-label, Phase 3, randomized controlled trial of atezolizumab plus bevacizumab (n=454) versus sunitinib (n=461) in patients with previously untreated advanced RCC (Rini et al. Lancet. 393: 2404-2415 (2019)). The study design, methods, and primary clinical findings from IMmotion151 have been reported previously (Rini et al. Lancet. 393: 2404-2415 (2019)).
Briefly, previously untreated patients with unresectable locally advanced or metastatic renal cell carcinoma with any component of clear-cell or sarcomatoid histology were randomized to receive atezolizumab 1200 mg+bevacizumab 15 mg/kg (atezolizumab+bevacizumab) once every 3 weeks (n=454) or sunitinib 50 mg once daily (n=461; 4 weeks on, 2 weeks off). The co-primary endpoints were investigator-assessed progression-free survival (PFS) in patients with ≥1% expressing PD-L1 on immune cells (IC, PD-L1^+) and overall survival (OS) in the intent-to-treat (ITT) population.
IMmotion151 (NCT02420821) was a multicenter, open-label, Phase 3, randomized controlled trial of atezolizumab plus bevacizumab (n=454) vs. sunitinib (n=461) in patients with previously untreated advanced renal cell carcinoma (Rini et al. Lancet. 393: 2404-2415 (2019)).
RNA-seq data from the randomized Phase II trial IMmotion150 were processed as described above. Transcriptional signature scores were derived from T-effector and angiogenesis signatures (McDermott et al. Nat Med. 24: 749-757 (2018)) for each sample, and hazard ratios were calculated at various gene expression scores. Gene expression score cutoffs of 2.93 (40% prevalence) and 5.82 (50% prevalence) were defined for the T-effector and angiogenesis signatures in IMmotion150 based on a combination of prevalence and hazard ratio plateauing. These absolute thresholds were prospectively applied to the IMmotion151 data to classify tumors with high and low T-effector and angiogenesis signatures. Cox-proportional hazard regression models were fit to compare PFS in atezolizumab+bevacizumab or sunitinib-treated patients in gene expression high and low subsets.
All analyses were conducted using Rv3.6.1. Unless otherwise stated, all comparisons for continuous variables use the two-sided Mann-Whitney test (R function wilcox.test) for two groups and the Kruskal-Wallis test (R function kruskal.test) for more than two groups. Dunn's post-hoc test was applied with Benjamini-Hochberg multiple testing correction for pairwise comparisons. For categorical variables, Pearson's Chi-squared test with continuity correction was used (R function chisq.test). Unless otherwise stated, false discovery rate (FDR)-adjusted p-values are reported. *: p<0.05; **: p<0.01; ***: p<0.001. Survival analyses were conducted using Cox-proportional hazard models using the R survival package (v 3.1.7). Log-rank p-values were reported for survival analyses including more than two groups. For all boxplots, the horizontal line represents the median. The lower and upper hinges correspond to the first and third quartiles. The upper whisker extends from the hinge to the largest value no further than 1.5*IQR from the hinge (where IQR is the inter-quartile range, or distance between the first and third quartiles). The lower whisker extends from the hinge to the smallest value at most 1.5*IQR of the hinge.

Where [1] appears, read: tumors with CDKN2A/B alterations.

With `CCN(CC)CCNC(=O)c1c(C)[nH]c(/C=C2\C(=O)Nc3ccc(F)cc32)c1C` [sunitinib], the ORR runs as follows: (PBRM1 non-mutant tumors) 27%; (Proliferative cluster (#5)) 3.1%; under setting [1], 20%. Further, the mPFS by setting is: (PBRM1 non-mutant tumors) 6.9 months; (Stromal/Proliferative cluster (printed #5)) 5.2 months; (loss-of-function mutations in ARID1A) 6.8 months; (loss-of-function mutations in KMT2C) 7.0 months; (tumors harboring PBRM1 mutations) 11.2 months; under setting [1], 4.1 months. Moreover, the “objective response rate (ORR)” value (T-effector/Proliferative cluster (#4)) was found to be 19.4%. Further, where the note is “sRCC (sarcomatoid RCC) patients, RECIST 1.1”, the Objective response rate is 14%. Under setting [1], the complete responses is 0%. The “PFS hazard ratio, Angiogenesis signature high vs low” value (within sunitinib treatment arm, 95% CI 0.47, 0.75) amounted to 0.59. The “PFS hazard ratio, PBRM1 mutant vs non-mutant tumors” value (within sunitinib-treated patients, 95% CI 0.51, 0.87) came out at 0.67.

The values above are taken from US20240410013A1, “METHODS AND COMPOSITIONS FOR CLASSIFYING AND TREATING KIDNEY CANCER” (Genentech, Inc., priority 2021, published 2024).
